# Reference: ChEMBL document CHEMBL1201862, “PubChem BioAssay data set” (2004)
# Activity calls are given as the source filed them.
# Columns and labels:
# [1] = M. tuberculosis H37Rv growth inhibitors, H37Rv strain (AID 1626); format: functional
# [2] = antiviral protection against BTV-induced cell death – arbovirus, BSR cells, confirmation (AID 1250); format: functional;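 further: protection from viral cytopathic effect measured as cell viability by ATP luminescence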
# [3] = biological target: FAD-linked sulfhydryl oxidase ALR (Homo sapiens, UniProt P55789); experiment: ALR-catalysed DTT oxidation blockers – biochemical, H2O2 detection, luminescence, cherry-pick, dose response (AID 493248)
# Sequence of FAD-linked sulfhydryl oxidase ALR (P55789 whole entry): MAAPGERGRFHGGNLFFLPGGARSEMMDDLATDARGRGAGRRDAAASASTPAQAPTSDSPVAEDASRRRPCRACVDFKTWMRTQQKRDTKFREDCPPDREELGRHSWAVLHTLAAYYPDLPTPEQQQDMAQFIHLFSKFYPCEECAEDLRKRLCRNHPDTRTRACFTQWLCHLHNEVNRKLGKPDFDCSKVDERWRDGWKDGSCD
# Estrogen receptor = biological target: T1, Estrogen receptor (Homo sapiens, UniProt P03372);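 further: potency for inhibiting coactivator peptide recruitment to the receptor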
# T1 sequence (P03372 whole entry): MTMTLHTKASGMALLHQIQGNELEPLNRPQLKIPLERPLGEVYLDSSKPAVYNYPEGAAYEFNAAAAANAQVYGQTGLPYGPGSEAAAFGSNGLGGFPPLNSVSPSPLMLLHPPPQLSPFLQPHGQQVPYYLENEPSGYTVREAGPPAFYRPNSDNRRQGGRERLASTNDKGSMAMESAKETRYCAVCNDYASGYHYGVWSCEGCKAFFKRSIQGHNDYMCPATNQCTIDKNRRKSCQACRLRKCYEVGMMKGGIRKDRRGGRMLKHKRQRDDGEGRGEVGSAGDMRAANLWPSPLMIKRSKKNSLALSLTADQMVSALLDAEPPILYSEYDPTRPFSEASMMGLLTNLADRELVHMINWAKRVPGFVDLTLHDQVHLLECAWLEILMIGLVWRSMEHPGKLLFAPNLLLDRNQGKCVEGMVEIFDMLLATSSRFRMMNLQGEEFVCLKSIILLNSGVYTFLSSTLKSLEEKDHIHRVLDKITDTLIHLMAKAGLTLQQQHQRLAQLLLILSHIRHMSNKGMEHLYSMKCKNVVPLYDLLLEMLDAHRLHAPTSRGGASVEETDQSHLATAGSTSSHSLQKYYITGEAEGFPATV
# [4] = viability of PTEN-deleted HCT116 cells – cell-based, HCT116 PTEN knockout, dose response (AID 1047); format: functional;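 further: HCT116 colon tumor cells with PTEN knocked out; cells exposed to compound for 60 hours before readout; potency for loss of cell viability measured by luminescence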
# [5] = viability of HCT116 lacking mutant beta-catenin – cell-based, human colon tumor, dose response (AID 1045); format: functional;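 further: HCT116 colon tumor cells with beta catenin knocked out; cells exposed to compound for 60 hours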
# [6] = biological target: Sphingosine 1-phosphate receptor 2 (Homo sapiens, UniProt O95136); experiment: Dose Response Cell Based Assay for Agonists of the S1P2 Receptor. [Related pubchem assays: 729, 736, 843 ]; format: functional
# Sequence of Sphingosine 1-phosphate receptor 2 (O95136 whole entry): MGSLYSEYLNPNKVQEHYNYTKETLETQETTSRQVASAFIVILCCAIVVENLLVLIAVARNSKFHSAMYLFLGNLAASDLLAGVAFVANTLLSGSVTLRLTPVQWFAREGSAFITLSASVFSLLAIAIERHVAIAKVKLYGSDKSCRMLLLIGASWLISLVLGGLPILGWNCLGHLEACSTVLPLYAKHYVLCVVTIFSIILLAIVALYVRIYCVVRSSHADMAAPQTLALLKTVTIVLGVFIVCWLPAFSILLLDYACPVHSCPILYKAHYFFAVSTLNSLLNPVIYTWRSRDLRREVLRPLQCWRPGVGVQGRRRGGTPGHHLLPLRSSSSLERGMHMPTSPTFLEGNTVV
# Protein RecA = biological target: T2, Protein RecA (Mycobacterium tuberculosis, UniProt P9WHJ3); experiment: Fluorescence Cell-Free Homogeneous Dose Retest to Identify Inhibitors of RecA-Intein Splicing Activity. [Related pubchem assays (depositor defined):AID2097, AID2223, AID489010, AID492950]; format: functional
# T2 sequence (P9WHJ3 whole entry): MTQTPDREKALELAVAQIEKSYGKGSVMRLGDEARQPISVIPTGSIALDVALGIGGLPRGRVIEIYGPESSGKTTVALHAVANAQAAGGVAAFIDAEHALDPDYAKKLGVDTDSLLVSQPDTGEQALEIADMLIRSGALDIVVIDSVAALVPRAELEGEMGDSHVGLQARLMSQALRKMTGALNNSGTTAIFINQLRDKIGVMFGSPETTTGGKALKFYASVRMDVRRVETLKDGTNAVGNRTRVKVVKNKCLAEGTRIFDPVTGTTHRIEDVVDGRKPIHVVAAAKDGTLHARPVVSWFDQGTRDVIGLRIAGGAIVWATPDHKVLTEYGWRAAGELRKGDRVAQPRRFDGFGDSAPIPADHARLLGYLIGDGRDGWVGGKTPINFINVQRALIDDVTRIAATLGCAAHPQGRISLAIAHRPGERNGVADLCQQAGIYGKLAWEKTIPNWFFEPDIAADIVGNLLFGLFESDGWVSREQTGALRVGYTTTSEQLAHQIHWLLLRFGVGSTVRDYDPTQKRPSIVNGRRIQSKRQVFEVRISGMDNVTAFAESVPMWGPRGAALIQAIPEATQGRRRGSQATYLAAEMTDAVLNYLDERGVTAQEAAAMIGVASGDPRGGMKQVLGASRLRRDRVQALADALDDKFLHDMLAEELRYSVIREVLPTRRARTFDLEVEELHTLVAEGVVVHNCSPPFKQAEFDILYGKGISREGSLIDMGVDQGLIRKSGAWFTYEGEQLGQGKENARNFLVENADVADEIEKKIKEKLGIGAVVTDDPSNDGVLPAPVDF
# [7] = biological target: T3, RNA-binding protein pos-1 (Caenorhabditis elegans, UniProt G5EF15); experiment: disruptors of C. elegans POS-1 RNA interaction – biochemical, fluorescence polarization, dose response (AID 1964);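 further: purified POS-1 fused to maltose binding protein made in E. coli; potency of compounds blocking POS-1 binding to fluorescent RNA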
# T3 sequence (G5EF15 whole entry): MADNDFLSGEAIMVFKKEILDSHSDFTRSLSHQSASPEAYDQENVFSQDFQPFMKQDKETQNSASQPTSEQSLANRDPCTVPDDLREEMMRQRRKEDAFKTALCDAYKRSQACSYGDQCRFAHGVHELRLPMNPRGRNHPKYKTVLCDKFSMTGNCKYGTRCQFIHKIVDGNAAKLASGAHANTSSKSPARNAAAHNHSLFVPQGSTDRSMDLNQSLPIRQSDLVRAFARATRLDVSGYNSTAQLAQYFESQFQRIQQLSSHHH
# [8] = biological target: T4, Zinc finger protein mex-5 (Caenorhabditis elegans, UniProt Q9XUB2); experiment: potency of MEX-5 RNA-binding blockers – biochemical, C. elegans, fluorescence polarization, dose response (AID 1960)
# T4 sequence (Q9XUB2 whole entry): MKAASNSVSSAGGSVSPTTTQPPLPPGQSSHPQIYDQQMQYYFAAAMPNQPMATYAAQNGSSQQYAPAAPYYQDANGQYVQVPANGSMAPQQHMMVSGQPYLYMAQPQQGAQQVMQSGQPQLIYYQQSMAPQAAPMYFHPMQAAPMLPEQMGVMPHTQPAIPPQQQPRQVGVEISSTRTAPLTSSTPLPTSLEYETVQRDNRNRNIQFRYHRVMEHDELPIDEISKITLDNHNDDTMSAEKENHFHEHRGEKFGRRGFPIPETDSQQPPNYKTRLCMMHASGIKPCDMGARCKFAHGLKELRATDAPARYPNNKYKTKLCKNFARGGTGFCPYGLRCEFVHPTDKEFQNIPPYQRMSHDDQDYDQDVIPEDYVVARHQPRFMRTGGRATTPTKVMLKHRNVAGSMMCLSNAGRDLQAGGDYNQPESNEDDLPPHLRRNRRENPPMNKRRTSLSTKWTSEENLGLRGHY
# [9] = biological target: T5, Heat shock factor protein 1 (Mus musculus, UniProt P38532); experiment: enhancement of HSF1-driven luciferase signal – cell-based, NIH3T3, luminescence, dose retest, confirmation (AID 435004); format: functional;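 further: stress induced by proteasome inhibitor MG132 added 30 min after compound; luciferase reporter driven by HSF1 response element in NIH3T3 cells; actives raise luminescence as potentiators of the MG132 stress response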
# T5 sequence (P38532 whole entry): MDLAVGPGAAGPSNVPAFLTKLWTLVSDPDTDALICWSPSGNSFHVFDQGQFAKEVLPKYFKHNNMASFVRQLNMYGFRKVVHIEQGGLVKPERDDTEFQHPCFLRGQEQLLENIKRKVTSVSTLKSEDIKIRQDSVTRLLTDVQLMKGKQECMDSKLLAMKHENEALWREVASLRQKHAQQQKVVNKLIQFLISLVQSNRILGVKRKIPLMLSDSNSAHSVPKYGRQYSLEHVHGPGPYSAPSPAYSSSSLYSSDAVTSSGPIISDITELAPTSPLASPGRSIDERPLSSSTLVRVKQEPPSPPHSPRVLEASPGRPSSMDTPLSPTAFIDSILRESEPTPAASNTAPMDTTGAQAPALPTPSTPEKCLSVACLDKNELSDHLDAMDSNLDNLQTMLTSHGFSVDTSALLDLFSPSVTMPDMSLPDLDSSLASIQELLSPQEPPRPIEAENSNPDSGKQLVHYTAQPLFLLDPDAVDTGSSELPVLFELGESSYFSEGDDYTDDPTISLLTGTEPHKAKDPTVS
# [10] = NIH-3T3 fibroblast cytotoxicity, dose response, cytotoxicity control, cell-based, fluorescence, Alamar Blue, secondary assay (AID 2327); format: functional;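 further: NIH-3T3 mouse fibroblasts cultured with fluconazole at 8 µg/mL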
# [11] = fluconazole-exposed Candida albicans growth modulators – fluorescence, retest, confirmation (AID 2467); format: functional, cell-based
# [12] = Trypanosoma cruzi growth suppression in host cells – NIH3T3 host cells, beta-gal luminescence, confirmation (AID 2044); format: functional, cell-based;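 further: intracellular parasites grown in NIH/3T3 mouse fibroblasts as host cells; luminescent beta-galactosidase reporter signal from transgenic T. cruzi replicating inside host cells; inhibitors lower the luminescence signal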
# [13] = NIH3T3 cell viability loss – ATP luminescence, mouse fibroblasts, counter-screen, dose response (AID 2010); format: functional, cell-based;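 further: cells exposed to compound for about 90 hours before reading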
# Jurkat = experiment: blockers of NF-kB activation in T cells – Jurkat, luciferase reporter, luminescence, B- and T-cell, dose response (AID 489004); format: functional, cell-based; details: Homo sapiens;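 further: NF-kB luciferase reporter Jurkat cells stimulated with PMA plus ionomycin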
# [14] = HEK-293T viability loss, compound-treated – cell-based, uHTS hits, cytotoxicity control for B/T-cell NF-kB inhibitor project, dose response (AID 489019); format: functional;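 further: IC50 reflects cytotoxicity as loss of cell viability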
# [15] = biological target: T6, Microphthalmia-associated transcription factor (Homo sapiens, UniProt O75030); experiment: reducers of TRPM1 reporter luminescence, concentration series – cell-based, SK-MEL-5, cherry-picked, set 3, MITF inhibitor project, dose response (AID 493073); format: functional;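 further: SK-MEL-5 melanoma cells with luciferase driven by the MITF target TRPM1 promoter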
# T6 sequence (O75030 whole entry): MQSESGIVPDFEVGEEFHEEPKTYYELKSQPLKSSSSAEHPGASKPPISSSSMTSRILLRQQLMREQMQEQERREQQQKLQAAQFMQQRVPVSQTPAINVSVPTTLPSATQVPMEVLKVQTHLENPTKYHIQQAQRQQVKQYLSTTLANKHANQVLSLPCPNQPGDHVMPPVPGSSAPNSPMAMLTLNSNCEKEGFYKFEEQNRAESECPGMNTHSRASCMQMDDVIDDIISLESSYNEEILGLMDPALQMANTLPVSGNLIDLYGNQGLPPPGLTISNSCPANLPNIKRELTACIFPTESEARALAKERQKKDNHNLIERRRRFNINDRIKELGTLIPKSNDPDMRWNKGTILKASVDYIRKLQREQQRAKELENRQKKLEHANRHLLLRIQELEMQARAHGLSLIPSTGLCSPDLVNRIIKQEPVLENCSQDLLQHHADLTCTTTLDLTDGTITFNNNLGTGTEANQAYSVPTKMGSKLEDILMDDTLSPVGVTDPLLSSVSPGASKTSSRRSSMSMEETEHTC
# INS1 = experiment: INS-1E survival protection against cytokine death – cell-based, luminescence, retest, dose response (AID 449756); format: functional; details: Rattus norvegicus;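 further: cell death triggered by IL-1 beta plus TNF-alpha plus IFN-gamma mixture; protective hits raise ATP signal compared with cytokine alone wells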
# [16] = biological target: T7, COUP transcription factor 2 (Homo sapiens, UniProt P24468); experiment: Luminescence-based cell-based high throughput dose response assay to identify inhibitors of COUP-TFII (NR2F2).; format: functional;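 further: HEK293 cells transiently cotransfected with COUP-TFII expression vector and reporter; luciferase reporter luminescence driven by COUP-TFII from the pX2-168 reporter plasmid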
# T7 sequence (P24468 whole entry): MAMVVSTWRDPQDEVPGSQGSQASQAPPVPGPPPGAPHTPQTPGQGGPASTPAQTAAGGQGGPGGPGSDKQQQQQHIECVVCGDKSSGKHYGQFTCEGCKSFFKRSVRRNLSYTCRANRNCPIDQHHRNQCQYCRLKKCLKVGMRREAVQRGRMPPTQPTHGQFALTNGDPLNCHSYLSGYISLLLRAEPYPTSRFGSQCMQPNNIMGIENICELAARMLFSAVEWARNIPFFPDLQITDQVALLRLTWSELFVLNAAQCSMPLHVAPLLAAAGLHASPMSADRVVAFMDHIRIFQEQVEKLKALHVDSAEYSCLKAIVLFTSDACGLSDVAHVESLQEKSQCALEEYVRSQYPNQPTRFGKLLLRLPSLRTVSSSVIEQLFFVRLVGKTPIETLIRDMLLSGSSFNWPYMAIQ
# [17] = biological target: Luciferin 4-monooxygenase (Photinus pyralis, UniProt P08659); experiment: inhibition of purified Photinus pyralis luciferase – biochemical, luminescence, dose response (AID 1891)
# Sequence of Luciferin 4-monooxygenase (P08659 whole entry): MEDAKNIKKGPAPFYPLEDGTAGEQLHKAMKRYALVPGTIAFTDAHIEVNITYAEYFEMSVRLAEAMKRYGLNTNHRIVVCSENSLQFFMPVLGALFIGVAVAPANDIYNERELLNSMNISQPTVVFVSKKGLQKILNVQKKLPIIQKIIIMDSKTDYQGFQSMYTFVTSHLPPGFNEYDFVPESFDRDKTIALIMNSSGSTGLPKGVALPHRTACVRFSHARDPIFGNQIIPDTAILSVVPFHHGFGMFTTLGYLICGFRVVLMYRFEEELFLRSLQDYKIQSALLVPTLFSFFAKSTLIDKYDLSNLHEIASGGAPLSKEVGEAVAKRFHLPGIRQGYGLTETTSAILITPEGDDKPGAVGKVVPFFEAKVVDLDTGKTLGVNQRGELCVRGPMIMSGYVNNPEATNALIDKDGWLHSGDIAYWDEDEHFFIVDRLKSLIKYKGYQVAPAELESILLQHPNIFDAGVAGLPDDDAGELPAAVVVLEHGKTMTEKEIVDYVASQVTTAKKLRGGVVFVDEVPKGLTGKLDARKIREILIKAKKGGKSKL
# [18] = Luminescence Cell-Based Dose Confirmation HTS to Identify Inhibitors of Platelet Dense Granule Release. [Related pubchem assays: 1663 (Primary HTS), 1678 (Summary of Project)]; format: functional
compound,measurement,setting,value
COc1cc(-c2cc(C(=O)Nc3nc4ccccc4s3)c3ccccc3n2)cc(OC)c1OC,IC50,[1],> 100 µM (active)
Cc1cccc(C(=O)Nc2scc(CC(C)C)c2C(=O)O)c1,IC50,[2],32.3 µM (active)
same,AC50,[3],0.016 µM (active)
COC(=O)c1ccc2c(=O)n(CC3CCCO3)c(SCC(=O)Nc3ccccc3Cl)nc2c1 (stereo unspecified),IC50,Estrogen receptor,20.9 µM (active)
CCC(C)NC(=O)c1c(N)n(Cc2ccc3c(c2)OCO3)c2nc3ccccc3nc12 (stereo unspecified),EC50,[4],15.3 µM (active)
same,EC50,[5],14.2 µM (active)
same,EC50,[6],2.41 µM (active)
same,EC50,Protein RecA,> 380 µM (inconclusive)
COC(=O)c1oc2ccc(Br)cc2c1NC(=O)CCCN1C(=O)c2ccccc2C1=O,IC50,Estrogen receptor,42.3 µM (not active)
COc1ccc2cc(S(=O)(=O)NCCCN3CCOCC3)ccc2c1,EC50,[6],> 50 µM (not active)
CC(=O)c1c(C)n(C)c2ccc(O)cc12,IC50,[1],> 100 µM (active)
CC(C)CC1=NN2C(=N)/C(=C/c3c[nH]c4ccccc34)C(=O)N=C2S1,EC50,[7],34.2 µM (inconclusive)
same,EC50,[8],47.4 µM (active)
same,IC50,[2],32.1 µM (active)
CCOC(=O)/C=C/C(=O)Nc1nccs1,IC50,[1],> 100 µM (active)
COc1ccc(/C=C/C(O)=C2/C(=O)N(C)C3(C)CC2c2ccccc2O3)cc1 (stereo unspecified),IC50,Estrogen receptor,> 50 µM (not active)
same,EC50,[4],10.7 µM (active)
same,EC50,[5],8.06 µM (active)
same,EC50,[9],> 260 µM (inactive)
CN(C)c1cc[n+](CC(=O)c2ccc(-c3ccccc3)cc2)cc1,EC50,[10],> 160 µM (inactive)
same,EC50,[11],2 µM (active)
same,EC50,[12],0.515 µM (active)
same,EC50,[13],> 60 µM (not active)
same,IC50,Jurkat,4.41 µM (active)
same,IC50,[14],> 80 µM (inactive)
same,AC50,[15],2.6 µM (active)
same,AC50,INS1,1.55 µM (active)
same,IC50,[16],10.2 µM (inactive)
O=C1CCCC(=O)C1=CNCCc1ccccc1,EC50,[17],> 112 µM (not active)
same,EC50,[18],> 112 µM (not active)
same,EC50,[6],> 50 µM (not active)
